Test results: ChEMBL document CHEMBL3046329, “Sensitivity to silthiofam, tebuconazole and difenoconazole of Gaeumannomyces graminis var. tritici isolates from China” (Pest Manag Sci, 2012)
Values after ≈ are worked out from the molar mass of the structure shown.

What was measured:
Gaeumannomyces tritici [1] = experiment: Antifungal activity against sithiofam-sensitive Gaeumannomyces graminis var. tritici isolate HN25 expressing C2 genetic cluster assessed as reduction in fungal colony diameter after 4 days; assay type: functional, organism-based; conditions: isolate HN25, 96 h
Gaeumannomyces tritici [2] = experiment: Antifungal activity against sithiofam-sensitive Gaeumannomyces graminis var. tritici isolate AH01 expressing C2 genetic cluster assessed as reduction in fungal colony diameter after 4 days; assay type: functional, organism-based; conditions: isolate AH01, 96 h
Gaeumannomyces tritici [3] = experiment: Antifungal activity against sithiofam-resistant Gaeumannomyces graminis var. tritici isolate HN09 expressing C1 genetic cluster assessed as reduction in fungal colony diameter after 4 days; assay type: functional, organism-based; conditions: isolate HN09, 96 h
Gaeumannomyces tritici [4] = experiment: Antifungal activity against sithiofam-resistant Gaeumannomyces graminis var. tritici isolate HN03 expressing C1 genetic cluster assessed as reduction in fungal colony diameter after 4 days; assay type: functional, organism-based; conditions: isolate HN03, 96 h
Gaeumannomyces tritici [5] = experiment: Antifungal activity against sithiofam-sensitive Gaeumannomyces graminis var. tritici isolate HN28 expressing C2 genetic cluster assessed as reduction in fungal colony diameter after 4 days; assay type: functional, organism-based; conditions: isolate HN28, 96 h
Gaeumannomyces tritici [6] = experiment: Antifungal activity against sithiofam-sensitive Gaeumannomyces graminis var. tritici isolate AH04 expressing C2 genetic cluster assessed as reduction in fungal colony diameter after 4 days; assay type: functional, organism-based; conditions: isolate AH04, 96 h
Gaeumannomyces tritici [7] = experiment: Antifungal activity against sithiofam-sensitive Gaeumannomyces graminis var. tritici isolate JS03 expressing C1 genetic cluster assessed as reduction in fungal colony diameter after 4 days; assay type: functional, organism-based; conditions: isolate JS03, 96 h
Gaeumannomyces tritici [8] = experiment: Antifungal activity against sithiofam-resistant Gaeumannomyces graminis var. tritici isolate HN02 expressing C1 genetic cluster assessed as reduction in fungal colony diameter after 4 days; assay type: functional, organism-based; conditions: isolate HN02, 96 h
Gaeumannomyces tritici [9] = experiment: Antifungal activity against sithiofam-sensitive Gaeumannomyces graminis var. tritici isolate AH12 expressing C2 genetic cluster assessed as reduction in fungal colony diameter after 4 days; assay type: functional, organism-based; conditions: isolate AH12, 96 h
Gaeumannomyces tritici [10] = experiment: Antifungal activity against sithiofam-sensitive Gaeumannomyces graminis var. tritici isolate HN15 expressing C2 genetic cluster assessed as reduction in fungal colony diameter after 4 days; assay type: functional, organism-based; conditions: isolate HN15, 96 h
Gaeumannomyces tritici [11] = experiment: Antifungal activity against sithiofam-sensitive Gaeumannomyces graminis var. tritici isolate AH08 expressing C2 genetic cluster assessed as reduction in fungal colony diameter after 4 days; assay type: functional, organism-based; conditions: isolate AH08, 96 h
Gaeumannomyces tritici [12] = experiment: Antifungal activity against sithiofam-sensitive Gaeumannomyces graminis var. tritici isolate HN19 expressing C2 genetic cluster assessed as reduction in fungal colony diameter after 4 days; assay type: functional, organism-based; conditions: isolate HN19, 96 h
Gaeumannomyces tritici [13] = experiment: Antifungal activity against sithiofam-resistant Gaeumannomyces graminis var. tritici isolate JS04 expressing C1 genetic cluster assessed as reduction in fungal colony diameter after 4 days; assay type: functional, organism-based; conditions: isolate JS04, 96 h
Gaeumannomyces tritici [14] = experiment: Antifungal activity against sithiofam-resistant Gaeumannomyces graminis var. tritici isolate HN05 expressing C1 genetic cluster assessed as reduction in fungal colony diameter after 4 days; assay type: functional, organism-based; conditions: isolate HN05, 96 h
Gaeumannomyces tritici [15] = experiment: Antifungal activity against sithiofam-sensitive Gaeumannomyces graminis var. tritici isolate HN18 expressing C2 genetic cluster assessed as reduction in fungal colony diameter after 4 days; assay type: functional, organism-based; conditions: isolate HN18, 96 h
Gaeumannomyces tritici [16] = experiment: Antifungal activity against sithiofam-sensitive Gaeumannomyces graminis var. tritici isolate HN11 expressing C2 genetic cluster assessed as reduction in fungal colony diameter after 4 days; assay type: functional, organism-based; conditions: isolate HN11, HN11, 96 h
Gaeumannomyces tritici [17] = experiment: Antifungal activity against sithiofam-resistant Gaeumannomyces graminis var. tritici isolate AH10 expressing C1 genetic cluster assessed as reduction in fungal colony diameter after 4 days; assay type: functional, organism-based; conditions: isolate AH10, 96 h
Gaeumannomyces tritici [18] = experiment: Antifungal activity against sithiofam-sensitive Gaeumannomyces graminis var. tritici isolate AH15 expressing C2 genetic cluster assessed as reduction in fungal colony diameter after 4 days; assay type: functional, organism-based; conditions: isolate AH15, 96 h
Gaeumannomyces tritici [19] = experiment: Antifungal activity against sithiofam-sensitive Gaeumannomyces graminis var. tritici isolate JS08 expressing C2 genetic cluster assessed as reduction in fungal colony diameter after 4 days; assay type: functional, organism-based; conditions: isolate JS08, 96 h
Gaeumannomyces tritici [20] = experiment: Antifungal activity against sithiofam-resistant Gaeumannomyces graminis var. tritici isolate HN06 expressing C1 genetic cluster assessed as reduction in fungal colony diameter after 4 days; assay type: functional, organism-based; conditions: isolate HN06, 96 h
Gaeumannomyces tritici [21] = experiment: Antifungal activity against sithiofam-sensitive Gaeumannomyces graminis var. tritici isolate SD04 expressing C2 genetic cluster assessed as reduction in fungal colony diameter after 4 days; assay type: functional, organism-based; conditions: isolate SD04, 96 h
Gaeumannomyces tritici [22] = experiment: Antifungal activity against sithiofam-resistant Gaeumannomyces graminis var. tritici isolate AH06 expressing C1 genetic cluster assessed as reduction in fungal colony diameter after 4 days; assay type: functional, organism-based; conditions: isolate AH06, 96 h
Gaeumannomyces tritici [23] = experiment: Antifungal activity against sithiofam-sensitive Gaeumannomyces graminis var. tritici isolate JS02 expressing C1 genetic cluster assessed as reduction in fungal colony diameter after 4 days; assay type: functional, organism-based; conditions: isolate JS02, 96 h
Gaeumannomyces tritici [24] = experiment: Antifungal activity against sithiofam-sensitive Gaeumannomyces graminis var. tritici isolate HN17 expressing C2 genetic cluster assessed as reduction in fungal colony diameter after 4 days; assay type: functional, organism-based; conditions: isolate HN17, 96 h
Gaeumannomyces tritici [25] = experiment: Antifungal activity against sithiofam-resistant Gaeumannomyces graminis var. tritici isolate HN20 expressing C1 genetic cluster assessed as reduction in fungal colony diameter after 4 days; assay type: functional, organism-based; conditions: isolate HN20, 96 h
Gaeumannomyces tritici [26] = experiment: Antifungal activity against sithiofam-resistant Gaeumannomyces graminis var. tritici isolate AH02 expressing C1 genetic cluster assessed as reduction in fungal colony diameter after 4 days; assay type: functional, organism-based; conditions: isolate AH02, 96 h
Gaeumannomyces tritici [27] = experiment: Antifungal activity against sithiofam-sensitive Gaeumannomyces graminis var. tritici isolate SD06 expressing C2 genetic cluster assessed as reduction in fungal colony diameter after 4 days; assay type: functional, organism-based; conditions: isolate SD06, 96 h
Gaeumannomyces tritici [28] = experiment: Antifungal activity against sithiofam-sensitive Gaeumannomyces graminis var. tritici isolate AH05 expressing C2 genetic cluster assessed as reduction in fungal colony diameter after 4 days; assay type: functional, organism-based; conditions: isolate AH05, 96 h
Gaeumannomyces tritici [29] = experiment: Antifungal activity against sithiofam-resistant Gaeumannomyces graminis var. tritici isolate JS12 expressing C1 genetic cluster assessed as reduction in fungal colony diameter after 4 days; assay type: functional, organism-based; conditions: isolate JS12, 96 h
Gaeumannomyces tritici [30] = experiment: (§1) Antifungal activity against sithiofam-resistant Gaeumannomyces graminis var. tritici isolate AH02 expressing C1 genetic cluster assessed as fungal induced root necrosis administered to wheat cultivar Huaimai 30 seeds grown on fungal infested soils at 0.25 g ai/kg measured after 10 days (reference value: 28.16%); assay type: functional
Gaeumannomyces tritici [31] = experiment: as §1, with “sithiofam-sensitive” for “sithiofam-resistant”, “SD05” for “AH02”, “C2” for “C1”, “27.71%)” for “28.16%)”; assay type: functional
Gaeumannomyces tritici [32] = experiment: as §1, with “sithiofam-sensitive” for “sithiofam-resistant”, “SD04” for “AH02”, “C2” for “C1”, “27.34%)” for “28.16%)”; assay type: functional
Gaeumannomyces tritici [33] = experiment: as §1, with “AH14” for “AH02”; assay type: functional

| SMILES | EC50 (Gaeumannomyces tritici [1]) [ng/mL] | EC50 (Gaeumannomyces tritici [2]) [ng/mL] | EC50 (Gaeumannomyces tritici [3]) [ng/mL] | EC50 (Gaeumannomyces tritici [4]) [ng/mL] | EC50 (Gaeumannomyces tritici [5]) [ng/mL] | EC50 (Gaeumannomyces tritici [6]) [ng/mL] | EC50 (Gaeumannomyces tritici [7]) [ng/mL] | EC50 (Gaeumannomyces tritici [8]) [ng/mL] | EC50 (Gaeumannomyces tritici [9]) [ng/mL] | EC50 (Gaeumannomyces tritici [10]) [ng/mL] | EC50 (Gaeumannomyces tritici [11]) [ng/mL] | EC50 (Gaeumannomyces tritici [12]) [ng/mL] | EC50 (Gaeumannomyces tritici [13]) [ng/mL] | EC50 (Gaeumannomyces tritici [14]) [ng/mL] | EC50 (Gaeumannomyces tritici [15]) [ng/mL] | EC50 (Gaeumannomyces tritici [16]) [ng/mL] | EC50 (Gaeumannomyces tritici [17]) [ng/mL] | EC50 (Gaeumannomyces tritici [18]) [ng/mL] | EC50 (Gaeumannomyces tritici [19]) [ng/mL] | EC50 (Gaeumannomyces tritici [20]) [ng/mL] | further results |
| --- | --- | --- | --- | --- | --- | --- | --- | --- | --- | --- | --- | --- | --- | --- | --- | --- | --- | --- | --- | --- | --- |
| CC(C)(C)C(O)(CCc1ccc(Cl)cc1)Cn1cncn1 (stereo unspecified) [TEBUCONAZOLE] | 86 (≈ 0.279 µM) | 25.4 (≈ 0.0825 µM) | 41.5 (≈ 0.135 µM) | 72.4 (≈ 0.235 µM) | 180 (≈ 0.584 µM) | 231 (≈ 0.752 µM) | 74.2 (≈ 0.241 µM) | 36.4 (≈ 0.118 µM) | 41.6 (≈ 0.135 µM) | 51.6 (≈ 0.168 µM) | 48.9 (≈ 0.159 µM) | 47.8 (≈ 0.155 µM) | 201 (≈ 0.652 µM) | 49.8 (≈ 0.162 µM) | 72.7 (≈ 0.236 µM) | 56.2 (≈ 0.183 µM) | 112 (≈ 0.363 µM) | 26.3 (≈ 0.0854 µM) | 51 (≈ 0.166 µM) | 53.3 (≈ 0.173 µM) | EC50 (Gaeumannomyces tritici [21]): 127 ng/mL (≈ 0.412 µM); EC50 (Gaeumannomyces tritici [22]): 28.3 ng/mL (≈ 0.0919 µM); EC50 (Gaeumannomyces tritici [23]): 54.7 ng/mL (≈ 0.178 µM); EC50 (Gaeumannomyces tritici [24]): 39.8 ng/mL (≈ 0.129 µM); EC50 (Gaeumannomyces tritici [25]): 104 ng/mL (≈ 0.338 µM); EC50 (Gaeumannomyces tritici [26]): 99.9 ng/mL (≈ 0.325 µM); EC50 (Gaeumannomyces tritici [27]): 64.6 ng/mL (≈ 0.21 µM); EC50 (Gaeumannomyces tritici [28]): 90.2 ng/mL (≈ 0.293 µM); EC50 (Gaeumannomyces tritici [29]): 27.4 ng/mL (≈ 0.089 µM) |
| C=CCNC(=O)c1c([Si](C)(C)C)sc(C)c1C [SILTHIOFAM] | 1.1 (≈ 0.00411 µM) | 1.1 (≈ 0.00411 µM) | 106000 (≈ 398 µM) | 30000 (≈ 112 µM) | 0.5 (≈ 0.00187 µM) | 1.2 (≈ 0.00449 µM) | 1.6 (≈ 0.00598 µM) | 88100 (≈ 329 µM) | 0.6 (≈ 0.00224 µM) | 1.1 (≈ 0.00411 µM) | 1.3 (≈ 0.00486 µM) | 0.1 (≈ 0.000374 µM) | 30300 (≈ 113 µM) | 23800 (≈ 89.1 µM) | 0.5 (≈ 0.00187 µM) | 0.7 (≈ 0.00262 µM) | 57600 (≈ 215 µM) | 0.5 (≈ 0.00187 µM) | 0.2 (≈ 0.000748 µM) | 29900 (≈ 112 µM) | Activity (Gaeumannomyces tritici [30]): 28%; Activity (Gaeumannomyces tritici [31]): 3.19%; EC50 (Gaeumannomyces tritici [21]): 0.2 ng/mL (≈ 0.000748 µM); EC50 (Gaeumannomyces tritici [22]): 29100 ng/mL (≈ 109 µM); EC50 (Gaeumannomyces tritici [23]): 1.3 ng/mL (≈ 0.00486 µM); EC50 (Gaeumannomyces tritici [24]): 1 ng/mL (≈ 0.00374 µM); Activity (Gaeumannomyces tritici [32]): 1.02%; EC50 (Gaeumannomyces tritici [25]): 24800 ng/mL (≈ 92.7 µM); EC50 (Gaeumannomyces tritici [26]): 51800 ng/mL (≈ 194 µM); EC50 (Gaeumannomyces tritici [27]): 1.2 ng/mL (≈ 0.00449 µM); EC50 (Gaeumannomyces tritici [28]): 1.3 ng/mL (≈ 0.00486 µM); EC50 (Gaeumannomyces tritici [29]): 48400 ng/mL (≈ 181 µM); Activity (Gaeumannomyces tritici [33]): 28.42% |
| CC1COC(Cn2cncn2)(c2ccc(Oc3ccc(Cl)cc3)cc2Cl)O1 (stereo unspecified) [DIFENOCONAZOLE] | 154 (≈ 0.38 µM) | 170 (≈ 0.419 µM) | 159 (≈ 0.392 µM) | 336 (≈ 0.827 µM) | 60.4 (≈ 0.149 µM) | 668 (≈ 1.64 µM) | 121 (≈ 0.299 µM) | 236 (≈ 0.58 µM) | 154 (≈ 0.38 µM) | 88.4 (≈ 0.218 µM) | 19 (≈ 0.0468 µM) | 326 (≈ 0.803 µM) | 198 (≈ 0.486 µM) | 261 (≈ 0.643 µM) | 313 (≈ 0.769 µM) | 164 (≈ 0.403 µM) | 128 (≈ 0.314 µM) | 169 (≈ 0.415 µM) | 162 (≈ 0.4 µM) | 479 (≈ 1.18 µM) | EC50 (Gaeumannomyces tritici [21]): 92.3 ng/mL (≈ 0.227 µM); EC50 (Gaeumannomyces tritici [22]): 240 ng/mL (≈ 0.59 µM); EC50 (Gaeumannomyces tritici [23]): 280 ng/mL (≈ 0.689 µM); EC50 (Gaeumannomyces tritici [24]): 176 ng/mL (≈ 0.432 µM); EC50 (Gaeumannomyces tritici [25]): 569 ng/mL (≈ 1.4 µM); EC50 (Gaeumannomyces tritici [26]): 273 ng/mL (≈ 0.672 µM); EC50 (Gaeumannomyces tritici [27]): 180 ng/mL (≈ 0.443 µM); EC50 (Gaeumannomyces tritici [28]): 68.3 ng/mL (≈ 0.168 µM); EC50 (Gaeumannomyces tritici [29]): 116 ng/mL (≈ 0.287 µM) |
